Test results taken from patent US10100019B2.

Assays:
[1] = test system: H3122 cells; test: Cytotoxicity in non-small cell lung cancer cell line H3122 (SRB); format: cell-based, human; conditions: H3122 cells, three days, SRB
Description: Particularly, 4,000 H3122 cells containing ALK enzyme were distributed in each well of a 96 well plate together with 100 μl of DMEM (Dulbecco's Modified Eagle's Medium). One day later, the compound of the present invention was added to each well at different concentrations of […]. DMSO (dimethylsulfoxide) was added to the well that was not loaded with the compound by the same amount as the compound. Three days after the addition of the compound, DMEM was eliminated. 10% TCA (trichloroacetic acid) was added to fix the cells. The wells were washed with running water three times and the live cells were stained with SRB solution (1 sulphorodamine B). Then, OD was measured to calculate the population of the live cells.

[2] = test system: H2228 cells; test: cells; conditions: Homo sapiens, NCI-H2228, 72 h, read-out: Cytotoxicity H2228 (GI50 μM), H2228 cells, three days, SRB

SMILES	GI50 ([1]; Homo sapiens, NCI-H3122, 72 h) [µM]	GI50 [2] [µM]	GI50 [1] [µM]
COc1ccc(C2(CN)CCCC2)cc1Nc1ncc(Cl)c(Nc2ccccc2S(=O)(=O)C(C)C)n1 [Example 1, N2-(5-(1-(aminomethyl)cyclopentyl)-2-methoxyphenyl)-5-chloro-N4-(2-(isopropylsulfonyl)phenyl)pyrimidine-2,4-diamine]	3.06	2.1	
COc1ccc(C2(CN)CCCCC2)cc1Nc1ncc(Cl)c(Nc2ccccc2S(=O)(=O)C(C)C)n1 [Example 2, N2-(5-(1-(aminomethyl)cyclohexyl)-2-methoxyphenyl)-5-chloro-N4-(2-(isopropylsulfonyl)phenyl)pyrimidine-2,4-diamine]	2.63	3.77	
COc1ccc(CC2(N)CC2)cc1Nc1ncc(Cl)c(Nc2ccccc2S(=O)(=O)C(C)C)n1 [Example 3, N2-(5-((1-aminocyclopropyl)methyl)-2-methoxyphenyl)-5-chloro-N4-(2-(isopropylsulfonyl)phenyl)pyrimidine-2,4-diamine]	0.77	1.21	
COc1ccc(CCN)cc1Nc1ncc(Cl)c(Nc2ccccc2S(=O)(=O)C(C)C)n1 [Example 4, N2-(5-(2-aminoethyl)-2-methoxyphenyl)-5-chloro-N4-(2-(isopropylsulfonyl)phenyl) pyrimidine-2,4-diamine]	≤ 0.1		0.08
COc1ccc(C2(CN3CCCCC3)CCCC2)cc1Nc1ncc(Cl)c(Nc2ccccc2S(=O)(=O)C(C)C)n1 [Example 5]		7.8	10
COc1ccc(C2(CN3CCOCC3)CCCC2)cc1Nc1ncc(Cl)c(Nc2ccccc2S(=O)(=O)C(C)C)n1 [Example 6, 5-chloro-N4-(2-(isopropylsulfonyl)phenyl)-N2-(2-methoxy-5-(1-(morpholinomethyl)cyclopentyl)phenyl)pyrimidine-2,4-diamine]		10	10
COc1ccc(CCNC(C)=O)cc1Nc1ncc(Cl)c(Nc2ccccc2S(=O)(=O)C(C)C)n1 [Example 7, N-(3-(5-chloro-4-(2-(isopropylsulfonyl)phenylamino)pyrimidine-2-ylamino)-4-methoxyphenethyl)acetamide]	0.79	0.8	
COc1ccc(CCNS(C)(=O)=O)cc1Nc1ncc(Cl)c(Nc2ccccc2S(=O)(=O)C(C)C)n1 [Example 8, N-(3-(5-chloro-4-(2-(isopropylsulfonyl)phenylamino)pyrimidine-2-ylamino)-4-methoxyphenethyl) methanesulfonamide]	1.9	0.88	
COc1ccc(CCN(C)C)cc1Nc1ncc(Cl)c(Nc2ccccc2S(=O)(=O)C(C)C)n1 [Example 9, 5-chloro-N2-(5-(2-(dimethylamino)ethyl)-2-methoxyphenyl)-N4-(2-(isopropylsulfonyl)phenyl)pyrimidine-2,4-diamine]	0.22	0.23	
CNCCc1ccc(OC)c(Nc2ncc(Cl)c(Nc3ccccc3S(=O)(=O)C(C)C)n2)c1 [Example 10, 5-chloro-N4-(2-(isopropylsulfonyl)phenyl)-N2-(2-methoxy-5-(2-(methylamino)ethyl)phenyl)pyrimidine-2,4-diamine]	1.2	1.8	
COc1ccc(CCNCc2ccccc2)cc1Nc1ncc(Cl)c(Nc2ccccc2S(=O)(=O)C(C)C)n1 [Example 11, N2-(5-(2-(benzylamino)ethyl)-2-methoxyphenyl)-5-chloro-N4-(2-(isopropylsulfonyl)phenyl)pyrimidine-2,4-diamine]	1.4	1.4	
COc1ccc(CCNC(=O)Cc2ccccc2)cc1Nc1ncc(Cl)c(Nc2ccccc2S(=O)(=O)C(C)C)n1 [Example 12, N-(3-(5-chloro-4-(2-(isopropylsulfonyl)phenylamino)pyrimidine-2-ylamino)-4-methoxyphenethyl)-2-phenylacetamide]	4.7	1.1	
CCNCCc1ccc(OC)c(Nc2ncc(Cl)c(Nc3ccccc3S(=O)(=O)C(C)C)n2)c1 [Example 13, 5-chloro-N2-(5-(2-(ethylamino)ethyl)-2-methoxyphenyl)-N4-(2-(isopropylsulfonyl)phenyl)pyrimidine-2,4-diamine]	0.99	0.87	
CCN(CC)CCc1ccc(OC)c(Nc2ncc(Cl)c(Nc3ccccc3S(=O)(=O)C(C)C)n2)c1 [Example 14, 5-chloro-N2-(5-(2-(diethylamino)ethyl)-2-methoxyphenyl)-N4-(2-(isopropylsulfonyl)phenyl)pyrimidine-2,4-diamine]	≤ 0.1	0.09	0.05
COc1ccc(CCCNC(=O)C(F)(F)F)cc1Nc1ncc(Cl)c(Nc2ccccc2S(=O)(=O)C(C)C)n1 [Example 40, N-(3-(3-((5-chloro-4-((2-(isopropylsulfonyl)phenyl)amino)pyrimidine-2-yl)amino)-4-methoxyphenyl)propyl)-2,2,2-trifluoroacetamide]	0.33		
COc1ccc(CCCN)cc1Nc1ncc(Cl)c(Nc2ccccc2S(=O)(=O)C(C)C)n1 [Example 41, N2-(5-(3-aminopropyl)-2-methoxyphenyl)-5-chloro-N4-(2-(isopropylsulfonyl)phenyl)pyrimidine-2,4-diamine]	0.19		
COc1ccc(CC(N)=O)cc1Nc1ncc(Cl)c(Nc2ccccc2S(=O)(=O)C(C)C)n1 [Example 42, 2-(3-((5-chloro-4-((2-(isopropylsulfonyl)phenyl)amino)pyrimidine-2-yl)amino)-4-methoxyphenyl)acetamide]	0.15		
CCOCCOC(=O)Cc1ccc(OC)c(Nc2ncc(Cl)c(Nc3ccccc3S(=O)(=O)C(C)C)n2)c1 [Example 43, 2-ethoxyethyl 2-(3-((5-chloro-4-((2-(isopropylsulfonyl)phenyl)amino)pyrimidine-2-yl)amino)-4-methoxyphenyl)acetate]	> 10		
COc1ccc(CC(=O)O)cc1Nc1ncc(Cl)c(Nc2ccccc2S(=O)(=O)C(C)C)n1 [Example 44, 2-(3-((5-chloro-4-((2-(isopropylsulfonyl)phenyl)amino)pyrimidine-2-yl)amino)-4-methoxyphenyl)acetic acid]	1		
COc1ccc(CC(=O)N2CCOCC2)cc1Nc1ncc(Cl)c(Nc2ccccc2S(=O)(=O)C(C)C)n1 [Example 45, 2-(3-((5-chloro-4-((2-(isopropylsulfonyl)phenyl)amino)pyrimidine-2-yl)amino)-4-methoxyphenyl)-1-morpholinoethane-1-one]			10
COc1ccc(CC(=O)N2CCCCC2)cc1Nc1ncc(Cl)c(Nc2ccccc2S(=O)(=O)C(C)C)n1 [Example 46, 2-(3-((5-chloro-4-((2-(isopropylsulfonyl)phenyl)amino)pyrimidine-2-yl)amino)-4-methoxyphenyl)-1-(piperidine-1-yl)ethane-1-one]			10
COc1ccc(CC(=O)N2CCNCC2)cc1Nc1ncc(Cl)c(Nc2ccccc2S(=O)(=O)C(C)C)n1 [Example 48, 2-(3-((5-chloro-4-((2-(isopropylsulfonyl)phenyl)amino)pyrimidine-2-yl)amino)-4-methoxyphenyl)-1-(piperazine-1-yl) ethane-1-one]	0.58		
COc1ccc(CC(=O)Nc2ccncc2)cc1Nc1ncc(Cl)c(Nc2ccccc2S(=O)(=O)C(C)C)n1 [Example 49, 2-(3-((5-chloro-4-((2-(isopropylsulfonyl)phenyl)amino)pyrimidine-2-yl)amino)-4-methoxyphenyl)-N-(pyridine-4-yl)acetamide]			10
COc1ccc(CC(=O)Nc2ccccc2)cc1Nc1ncc(Cl)c(Nc2ccccc2S(=O)(=O)C(C)C)n1 [Example 50, 2-(3-((5-chloro-4-((2-(isopropylsulfonyl)phenyl)amino)pyrimidine-2-yl)amino)-4-methoxyphenyl)-N-phenylacetamide]			10
COc1cc(Br)c(CCN)cc1Nc1ncc(Cl)c(Nc2ccccc2S(=O)(=O)C(C)C)n1 [Example 51, N2-(5-(2-aminoethyl)-4-bromo-2-methoxyphenyl)-5-chloro-N4-(2-(isopropylsulfonyl)phenyl)pyrimidine-2,4-diamine]	1.1		
COc1cc(-c2cnn(C)c2)c(CCN)cc1Nc1ncc(Cl)c(Nc2ccccc2S(=O)(=O)C(C)C)n1 [Example 52, N2-(5-(2-aminoethyl)-2-methoxy-4-(1-methyl-1H-pyrazole-4-yl)phenyl)-5-chloro-N4-(2-(isopropylsulfonyl)phenyl)pyrimidine-2,4-diamine]	0.096		
COc1cc(C(C)(C)N)c(C)cc1Nc1ncc(Cl)c(Nc2ccccc2S(=O)(=O)C(C)C)n1 [Example 57, N2-(4-(2-aminopropane-2-yl)-2-methoxy-5-methylphenyl)-5-chloro-N4-(2-(isopropylsulfonyl)phenyl)pyrimidine-2,4-diamine]	0.012		
COc1cc(CN)c(C)cc1Nc1ncc(Cl)c(Nc2ccccc2S(=O)(=O)C(C)C)n1 [Example 68, N2-(4-(aminomethyl)-2-methoxy-5-methylphenyl)-5-chloro-N4-(2-(isopropylsulfonyl)phenyl)pyrimidine-2,4-diamine]	0.11		
COc1cc(C[N+](C)(C)C)c(C)cc1Nc1ncc(Cl)c(Nc2ccccc2S(=O)(=O)C(C)C)n1 [Example 69, 1-(4-((5-chloro-4-((2-(isopropylsulfonyl)phenyl)amino)pyrimidine-2-yl)amino)-5-methoxy-2-methylphenyl)-N,N,N-trimethylmethanealuminum iodide]	1.7		
COc1ccc(CCN2CCNCC2)cc1Nc1ncc(Cl)c(Nc2ccccc2S(=O)(=O)C(C)C)n1 [Example 73, 5-chloro-N4-(2-(isopropylsulfonyl)phenyl)-N2-(2-methoxy-5-(2-(piperazine-1-yl)ethyl)phenyl)pyrimidine-2,4-diamine]	0.16		
